Laboratory results: article PMC4770715, “LIM kinase inhibitors disrupt mitotic microtubule organization and impair tumor cell proliferation” (Oncotarget, 2015)

How the values were obtained:
Experiment in all cases: biochemical
Set-up in all cases: KINOMEscan active-site competition binding, percent of control (100 = no competition)
Conditions in all cases: competition binding, percent control
MLCK = target: T1, MLCK (Homo sapiens, UniProt Q32MK0)
T1 construct: gene MYLK3

PIK3CA(H1047Y) = PIK3CA(H1047Y) (Homo sapiens, UniProt P42336, H1047Y)
PRKD1 = PRKD1 (Homo sapiens, UniProt Q15139)
Chain of PRKD1 (Q15139 whole entry): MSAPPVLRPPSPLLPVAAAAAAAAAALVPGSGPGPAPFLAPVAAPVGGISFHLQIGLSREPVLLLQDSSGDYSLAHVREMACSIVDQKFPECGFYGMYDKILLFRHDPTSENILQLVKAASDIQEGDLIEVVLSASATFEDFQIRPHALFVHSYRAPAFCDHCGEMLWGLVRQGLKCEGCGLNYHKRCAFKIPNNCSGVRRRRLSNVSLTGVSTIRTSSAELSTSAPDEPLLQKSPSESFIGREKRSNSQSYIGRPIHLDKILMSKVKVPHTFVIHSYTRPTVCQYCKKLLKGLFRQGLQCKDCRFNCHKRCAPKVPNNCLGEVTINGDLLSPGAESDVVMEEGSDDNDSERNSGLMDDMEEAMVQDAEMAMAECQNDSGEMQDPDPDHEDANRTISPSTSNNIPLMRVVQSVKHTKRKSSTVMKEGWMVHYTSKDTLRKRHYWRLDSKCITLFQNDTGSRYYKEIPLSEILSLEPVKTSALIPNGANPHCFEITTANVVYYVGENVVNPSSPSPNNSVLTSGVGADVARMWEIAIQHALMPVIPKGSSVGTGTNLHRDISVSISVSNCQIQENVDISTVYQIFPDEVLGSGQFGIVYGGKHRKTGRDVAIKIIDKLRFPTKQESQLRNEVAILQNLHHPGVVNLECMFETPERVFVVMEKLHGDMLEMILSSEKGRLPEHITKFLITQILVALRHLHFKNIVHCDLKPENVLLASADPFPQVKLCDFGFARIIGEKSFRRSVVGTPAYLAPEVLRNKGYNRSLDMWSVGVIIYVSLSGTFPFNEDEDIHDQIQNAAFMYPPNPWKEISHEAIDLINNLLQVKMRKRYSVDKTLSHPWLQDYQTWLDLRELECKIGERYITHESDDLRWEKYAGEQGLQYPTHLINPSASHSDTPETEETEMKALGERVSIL

MEK5 = target: T2, MEK5 (Homo sapiens, UniProt Q13163)
T2 construct: gene MAP2K5

BMPR2 = BMPR2 (Homo sapiens, UniProt Q13873)
ERK4 = target: T3, ERK4 (Homo sapiens, UniProt P31152)
T3 construct: gene MAPK4

TAOK2 = TAOK2 (Homo sapiens, UniProt Q9UL54)
CSNK1A1 = CSNK1A1 (Homo sapiens, UniProt P48729)
PDGFRB = PDGFRB (Homo sapiens, UniProt P09619)
NEK11 = NEK11 (Homo sapiens, UniProt Q8NG66)
HIPK3 = HIPK3 (Homo sapiens, UniProt Q9H422)
PRKCI = PRKCI (Homo sapiens, UniProt P41743)
Chain of PRKCI (P41743 whole entry): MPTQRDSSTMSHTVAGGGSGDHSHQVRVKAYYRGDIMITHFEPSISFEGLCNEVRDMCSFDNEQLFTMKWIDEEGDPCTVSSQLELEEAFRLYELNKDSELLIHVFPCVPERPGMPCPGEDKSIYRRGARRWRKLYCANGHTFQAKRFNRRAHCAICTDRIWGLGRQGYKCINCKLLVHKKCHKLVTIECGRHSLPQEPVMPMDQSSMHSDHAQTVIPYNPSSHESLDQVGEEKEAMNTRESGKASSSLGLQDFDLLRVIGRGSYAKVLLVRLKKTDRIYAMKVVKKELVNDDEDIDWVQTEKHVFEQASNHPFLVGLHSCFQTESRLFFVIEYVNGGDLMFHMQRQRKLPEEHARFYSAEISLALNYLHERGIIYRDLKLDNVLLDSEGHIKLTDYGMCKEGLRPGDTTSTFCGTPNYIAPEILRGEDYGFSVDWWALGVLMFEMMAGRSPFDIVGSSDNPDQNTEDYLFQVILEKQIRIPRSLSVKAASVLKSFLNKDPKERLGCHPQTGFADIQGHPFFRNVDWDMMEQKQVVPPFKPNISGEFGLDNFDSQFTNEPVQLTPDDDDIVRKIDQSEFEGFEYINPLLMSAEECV

TSSK1B = TSSK1B (Homo sapiens, UniProt Q9BXA7)
SNARK = target: T4, SNARK (Homo sapiens, UniProt Q9H093)
T4 construct: gene NUAK2
T4 sequence (Q9H093 whole entry): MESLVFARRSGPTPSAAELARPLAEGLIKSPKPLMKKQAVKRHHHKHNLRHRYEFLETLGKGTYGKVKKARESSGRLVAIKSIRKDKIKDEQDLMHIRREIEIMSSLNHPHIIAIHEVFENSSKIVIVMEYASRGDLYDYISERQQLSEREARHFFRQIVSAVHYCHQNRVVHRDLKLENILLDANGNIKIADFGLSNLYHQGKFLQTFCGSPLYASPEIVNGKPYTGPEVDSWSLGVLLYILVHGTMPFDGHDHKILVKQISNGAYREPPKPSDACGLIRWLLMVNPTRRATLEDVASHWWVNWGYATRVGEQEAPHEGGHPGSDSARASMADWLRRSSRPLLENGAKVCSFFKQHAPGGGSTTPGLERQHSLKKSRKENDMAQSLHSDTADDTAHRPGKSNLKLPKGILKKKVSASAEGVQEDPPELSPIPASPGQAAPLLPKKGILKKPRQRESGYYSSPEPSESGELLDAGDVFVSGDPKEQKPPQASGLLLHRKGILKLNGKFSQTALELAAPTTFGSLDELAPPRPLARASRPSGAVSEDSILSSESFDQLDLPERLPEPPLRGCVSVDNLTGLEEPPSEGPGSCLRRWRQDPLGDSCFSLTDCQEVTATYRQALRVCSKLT

STK33 = STK33 (Homo sapiens, UniProt Q9BYT3)
NEK3 = NEK3 (Homo sapiens, UniProt P51956)
CAMK1D = CAMK1D (Homo sapiens, UniProt Q8IU85)
CDK2 = CDK2 (Homo sapiens, UniProt P24941)
CIT = CIT (Homo sapiens, UniProt O14578)
Chain of CIT (O14578 whole entry): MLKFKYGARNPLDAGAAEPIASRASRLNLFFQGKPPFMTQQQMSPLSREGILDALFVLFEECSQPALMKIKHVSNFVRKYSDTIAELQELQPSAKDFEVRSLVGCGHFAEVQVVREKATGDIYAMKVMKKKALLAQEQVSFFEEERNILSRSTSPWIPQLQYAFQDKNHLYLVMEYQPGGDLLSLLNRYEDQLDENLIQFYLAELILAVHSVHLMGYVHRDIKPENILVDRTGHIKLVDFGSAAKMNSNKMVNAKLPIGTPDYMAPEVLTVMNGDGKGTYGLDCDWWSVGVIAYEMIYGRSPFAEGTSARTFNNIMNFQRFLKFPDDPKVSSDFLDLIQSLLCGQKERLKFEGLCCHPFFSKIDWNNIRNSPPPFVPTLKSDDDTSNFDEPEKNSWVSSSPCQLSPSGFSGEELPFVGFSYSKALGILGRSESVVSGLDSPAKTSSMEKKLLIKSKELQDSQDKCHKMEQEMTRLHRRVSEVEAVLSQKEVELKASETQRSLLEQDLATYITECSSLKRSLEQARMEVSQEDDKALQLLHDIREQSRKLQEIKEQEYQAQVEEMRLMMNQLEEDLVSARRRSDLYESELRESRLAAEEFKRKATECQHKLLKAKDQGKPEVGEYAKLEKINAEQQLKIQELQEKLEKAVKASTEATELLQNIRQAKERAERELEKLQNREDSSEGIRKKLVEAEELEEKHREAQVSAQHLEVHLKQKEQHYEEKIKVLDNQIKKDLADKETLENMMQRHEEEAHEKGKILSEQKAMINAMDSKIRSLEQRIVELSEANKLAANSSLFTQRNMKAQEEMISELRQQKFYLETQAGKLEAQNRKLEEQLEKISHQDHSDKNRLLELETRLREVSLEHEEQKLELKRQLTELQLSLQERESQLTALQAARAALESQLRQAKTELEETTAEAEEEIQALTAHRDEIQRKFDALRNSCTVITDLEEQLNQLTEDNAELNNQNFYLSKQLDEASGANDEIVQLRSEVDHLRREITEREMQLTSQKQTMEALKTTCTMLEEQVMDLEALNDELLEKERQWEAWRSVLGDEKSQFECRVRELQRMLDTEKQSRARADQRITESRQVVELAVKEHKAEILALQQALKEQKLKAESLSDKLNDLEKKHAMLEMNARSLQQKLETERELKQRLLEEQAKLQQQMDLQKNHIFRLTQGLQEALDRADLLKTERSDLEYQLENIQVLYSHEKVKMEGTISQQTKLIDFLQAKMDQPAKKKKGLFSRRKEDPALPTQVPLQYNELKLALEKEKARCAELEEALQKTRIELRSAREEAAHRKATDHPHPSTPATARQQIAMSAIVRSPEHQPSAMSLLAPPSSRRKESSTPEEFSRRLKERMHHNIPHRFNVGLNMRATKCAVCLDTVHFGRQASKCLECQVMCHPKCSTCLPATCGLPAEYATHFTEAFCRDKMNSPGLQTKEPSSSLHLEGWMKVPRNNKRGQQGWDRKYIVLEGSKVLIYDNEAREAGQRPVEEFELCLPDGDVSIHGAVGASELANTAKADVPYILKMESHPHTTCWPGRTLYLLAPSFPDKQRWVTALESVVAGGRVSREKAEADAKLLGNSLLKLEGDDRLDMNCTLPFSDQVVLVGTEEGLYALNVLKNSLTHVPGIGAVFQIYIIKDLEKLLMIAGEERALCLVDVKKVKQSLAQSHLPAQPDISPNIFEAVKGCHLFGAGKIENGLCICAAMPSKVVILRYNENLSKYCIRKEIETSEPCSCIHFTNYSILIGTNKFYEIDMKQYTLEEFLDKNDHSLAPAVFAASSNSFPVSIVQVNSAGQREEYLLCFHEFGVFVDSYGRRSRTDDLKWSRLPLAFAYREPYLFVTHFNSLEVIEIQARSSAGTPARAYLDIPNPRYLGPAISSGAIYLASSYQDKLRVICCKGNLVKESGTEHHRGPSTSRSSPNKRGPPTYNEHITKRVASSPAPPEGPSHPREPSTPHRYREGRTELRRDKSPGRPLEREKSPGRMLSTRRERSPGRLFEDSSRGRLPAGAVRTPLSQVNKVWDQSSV

NEK2 = NEK2 (Homo sapiens, UniProt P51955)
MAP3K4 = MAP3K4 (Homo sapiens, UniProt Q9Y6R4)
BTK = BTK (Homo sapiens, UniProt Q06187)
Chain of BTK (Q06187 whole entry): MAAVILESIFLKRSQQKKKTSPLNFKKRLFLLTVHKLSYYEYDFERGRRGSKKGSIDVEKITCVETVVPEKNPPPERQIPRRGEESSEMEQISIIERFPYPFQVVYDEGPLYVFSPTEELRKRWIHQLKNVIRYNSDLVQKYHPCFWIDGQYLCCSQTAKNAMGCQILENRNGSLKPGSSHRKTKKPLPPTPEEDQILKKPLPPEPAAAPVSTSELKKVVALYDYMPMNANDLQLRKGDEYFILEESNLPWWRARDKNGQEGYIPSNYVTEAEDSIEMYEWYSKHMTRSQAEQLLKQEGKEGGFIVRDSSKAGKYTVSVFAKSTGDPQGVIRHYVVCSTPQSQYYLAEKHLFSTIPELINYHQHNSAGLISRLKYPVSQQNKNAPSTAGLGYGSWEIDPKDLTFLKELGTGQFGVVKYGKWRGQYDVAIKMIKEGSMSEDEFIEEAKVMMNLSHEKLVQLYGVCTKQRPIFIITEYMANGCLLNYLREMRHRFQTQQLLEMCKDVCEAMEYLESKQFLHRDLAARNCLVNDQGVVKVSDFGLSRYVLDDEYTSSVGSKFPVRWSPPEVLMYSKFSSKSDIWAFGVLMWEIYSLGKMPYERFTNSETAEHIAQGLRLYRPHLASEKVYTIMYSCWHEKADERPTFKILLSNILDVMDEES

CAMK4 = CAMK4 (Homo sapiens, UniProt Q16566)

What does the source list for `COc1ccc(-c2cnccc2-c2cnc(NC(=O)C(C)C)s2)c(C(F)(F)F)c1` [CRT0105446, N-{5-[3-(4-Methoxy-2-trifluoromethyl-phenyl)-pyridin-4-yl]-hiazol-2-yl}-isobutyramide]?
remaining binding at 10 µM (MLCK): 90%; remaining binding at 10 µM (PIK3CA(H1047Y)): 94%; remaining binding at 10 µM (PRKD1): 88%; remaining binding at 10 µM (MEK5): 100%; remaining binding at 10 µM (BMPR2): 100%; remaining binding at 10 µM (ERK4): 100%; remaining binding at 10 µM (TAOK2): 76%; remaining binding at 10 µM (CSNK1A1): 100%; remaining binding at 10 µM (PDGFRB): 51%; remaining binding at 10 µM (NEK11): 100%; remaining binding at 10 µM (HIPK3): 98%; remaining binding at 10 µM (PRKCI): 81%; remaining binding at 10 µM (TSSK1B): 80%; remaining binding at 10 µM (SNARK): 84%; remaining binding at 10 µM (STK33): 100%; remaining binding at 10 µM (NEK3): 100%; remaining binding at 10 µM (CAMK1D): 79%; remaining binding at 10 µM (CDK2): 0.9%; remaining binding at 10 µM (CIT): 37%; remaining binding at 10 µM (NEK2): 100%; remaining binding at 10 µM (MAP3K4): 99%; remaining binding at 10 µM (BTK): 85%; remaining binding at 10 µM (CAMK4): 98%

What does the source list for `Cc1ccc(-c2cnccc2-c2cnc(Nc3ccc(O)cc3)s2)c(Cl)c1` [CRT0105950, 4-{5-[3-(2-Chloro-4-methyl-phenyl)-pyridin-4-yl]-thiazol-2-ylamino}-phenol]?
remaining binding at 10 µM (MLCK): 14%; remaining binding at 10 µM (PIK3CA(H1047Y)): 93%; remaining binding at 10 µM (PRKD1): 18%; remaining binding at 10 µM (MEK5): 60%; remaining binding at 10 µM (BMPR2): 8.9%; remaining binding at 10 µM (ERK4): 86%; remaining binding at 10 µM (TAOK2): 21%; remaining binding at 10 µM (CSNK1A1): 88%; remaining binding at 10 µM (PDGFRB): 1.6%; remaining binding at 10 µM (NEK11): 84%; remaining binding at 10 µM (HIPK3): 69%; remaining binding at 10 µM (PRKCI): 79%; remaining binding at 10 µM (TSSK1B): 100%; remaining binding at 10 µM (SNARK): 31%; remaining binding at 10 µM (STK33): 100%; remaining binding at 10 µM (NEK3): 88%; remaining binding at 10 µM (CAMK1D): 63%; remaining binding at 10 µM (CDK2): 0.2%; remaining binding at 10 µM (CIT): 44%; remaining binding at 10 µM (NEK2): 82%; remaining binding at 10 µM (MAP3K4): 100%; remaining binding at 10 µM (BTK): 72%; remaining binding at 10 µM (CAMK4): 90%
